In the supplement of paper PMC10307832 one finds relative viability data, which are given here for 5 compounds.

One assay concerns HCC-827. Description: relative viability (nuclei count vs DMSO), 5 days (fraction); higher = more cells survive. The note with it: first compound 8 µM. In outline:
(§1)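 Relative viability is defined as nuclei in treated wells over nuclei in vehicle wells. Duplicate plates were run and medians reported. Lung cancer cell lines in 1536-well plates were dosed by pin tool one day after seeding, with one drug or with a fixed anchor-drug dose plus five library-drug doses (not always all listed) in √10 steps, and nuclei were counted after 5 days.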
As to `CCCCCCCCCCCC1=C(O)C(=O)C=C(O)C1=O` [Embelin] + N=C(N)NC(=N)NCCc1ccccc1 [Phenformin] (partner 250 µM), the relative viability is 0.443.

For `CCCCCCCCCCCC1=C(O)C(=O)C=C(O)C1=O` [Embelin] + O=C(c1cc(Cc2n[nH]c(=O)c3ccccc23)ccc1F)N1CCN(C(=O)C2CC2)CC1 [Olaparib] (partner 8 µM), the relative viability amounted to 0.715.

`CCCCCCCCCCCC1=C(O)C(=O)C=C(O)C1=O` [Embelin] + CC(=O)Nc1cccc(-n2c(=O)n(C3CC3)c(=O)c3c(Nc4ccc(I)cc4F)n(C)c(=O)c(C)c32)c1 [Trametinib] (partner 0.02 µM) came in with a relative viability of 0.487.

For the compound `CCCCCCCCCCCC1=C(O)C(=O)C=C(O)C1=O` [Embelin] + Nc1ncn([C@H]2C[C@H](O)[C@@H](CO)O2)c(=O)n1 [Decitabine] (partner 2 µM), the relative viability was determined as 0.355.

`CCCCCCCCCCCC1=C(O)C(=O)C=C(O)C1=O` [Embelin] + NC(=O)Nc1cc(-c2cccc(F)c2)sc1C(=O)N[C@H]1CCCNC1 [AZD7762] (partner 0.2 µM) returned a relative viability of 0.278.

The subject of the next assay is LC-2-ad. Described as above. To be noted: first compound 0.08 µM. In a few lines:
as §1
`CCCCCCCCCCCC1=C(O)C(=O)C=C(O)C1=O` [Embelin] + N=C(N)NC(=N)NCCc1ccccc1 [Phenformin] (partner 250 µM) showed a relative viability of 0.608.

Compound `CCCCCCCCCCCC1=C(O)C(=O)C=C(O)C1=O` [Embelin] + O=C(c1cc(Cc2n[nH]c(=O)c3ccccc23)ccc1F)N1CCN(C(=O)C2CC2)CC1 [Olaparib] (partner 8 µM) came in with a relative viability of 0.675.

The compound `CCCCCCCCCCCC1=C(O)C(=O)C=C(O)C1=O` [Embelin] + CC(=O)Nc1cccc(-n2c(=O)n(C3CC3)c(=O)c3c(Nc4ccc(I)cc4F)n(C)c(=O)c(C)c32)c1 [Trametinib] (partner 0.02 µM) yielded a relative viability of 0.891.

`CCCCCCCCCCCC1=C(O)C(=O)C=C(O)C1=O` [Embelin] + Nc1ncn([C@H]2C[C@H](O)[C@@H](CO)O2)c(=O)n1 [Decitabine] (partner 2 µM) displayed a relative viability of 0.788.

`CCCCCCCCCCCC1=C(O)C(=O)C=C(O)C1=O` [Embelin] + NC(=O)Nc1cc(-c2cccc(F)c2)sc1C(=O)N[C@H]1CCCNC1 [AZD7762] (partner 0.2 µM) displayed a relative viability of 0.884.

The assay is the same for the next values; noted with them: first compound 0.8 µM.
Compound `CCCCCCCCCCCC1=C(O)C(=O)C=C(O)C1=O` [Embelin] + N=C(N)NC(=N)NCCc1ccccc1 [Phenformin] (partner 250 µM) showed a relative viability of 0.772.

As for `CCCCCCCCCCCC1=C(O)C(=O)C=C(O)C1=O` [Embelin] + O=C(c1cc(Cc2n[nH]c(=O)c3ccccc23)ccc1F)N1CCN(C(=O)C2CC2)CC1 [Olaparib] (partner 8 µM), the relative viability was determined as 0.728.

Take `CCCCCCCCCCCC1=C(O)C(=O)C=C(O)C1=O` [Embelin] + CC(=O)Nc1cccc(-n2c(=O)n(C3CC3)c(=O)c3c(Nc4ccc(I)cc4F)n(C)c(=O)c(C)c32)c1 [Trametinib] (partner 0.02 µM): the relative viability is 0.98.

`CCCCCCCCCCCC1=C(O)C(=O)C=C(O)C1=O` [Embelin] + Nc1ncn([C@H]2C[C@H](O)[C@@H](CO)O2)c(=O)n1 [Decitabine] (partner 2 µM) gave a relative viability of 0.79.

Consider `CCCCCCCCCCCC1=C(O)C(=O)C=C(O)C1=O` [Embelin] + NC(=O)Nc1cc(-c2cccc(F)c2)sc1C(=O)N[C@H]1CCCNC1 [AZD7762] (partner 0.2 µM), for which the relative viability was determined as 0.888.

Staying with this assay, now noted: first compound 2.53 µM.
Compound `CCCCCCCCCCCC1=C(O)C(=O)C=C(O)C1=O` [Embelin] + N=C(N)NC(=N)NCCc1ccccc1 [Phenformin] (partner 250 µM) came in with a relative viability of 0.617.

As to `CCCCCCCCCCCC1=C(O)C(=O)C=C(O)C1=O` [Embelin] + O=C(c1cc(Cc2n[nH]c(=O)c3ccccc23)ccc1F)N1CCN(C(=O)C2CC2)CC1 [Olaparib] (partner 8 µM), the relative viability came to 0.678.

Compound `CCCCCCCCCCCC1=C(O)C(=O)C=C(O)C1=O` [Embelin] + CC(=O)Nc1cccc(-n2c(=O)n(C3CC3)c(=O)c3c(Nc4ccc(I)cc4F)n(C)c(=O)c(C)c32)c1 [Trametinib] (partner 0.02 µM) registered a relative viability of 0.966.

In turn, `CCCCCCCCCCCC1=C(O)C(=O)C=C(O)C1=O` [Embelin] + Nc1ncn([C@H]2C[C@H](O)[C@@H](CO)O2)c(=O)n1 [Decitabine] (partner 2 µM) returned a relative viability of 0.795.

Consider `CCCCCCCCCCCC1=C(O)C(=O)C=C(O)C1=O` [Embelin] + NC(=O)Nc1cc(-c2cccc(F)c2)sc1C(=O)N[C@H]1CCCNC1 [AZD7762] (partner 0.2 µM), for which the relative viability was 0.916.

Still in this assay, the particulars now being: first compound 8 µM.
Consider `CCCCCCCCCCCC1=C(O)C(=O)C=C(O)C1=O` [Embelin] + N=C(N)NC(=N)NCCc1ccccc1 [Phenformin] (partner 250 µM), for which the relative viability came out at 0.367.

For `CCCCCCCCCCCC1=C(O)C(=O)C=C(O)C1=O` [Embelin] + O=C(c1cc(Cc2n[nH]c(=O)c3ccccc23)ccc1F)N1CCN(C(=O)C2CC2)CC1 [Olaparib] (partner 8 µM), the relative viability stood at 0.727.

Turning to `CCCCCCCCCCCC1=C(O)C(=O)C=C(O)C1=O` [Embelin] + CC(=O)Nc1cccc(-n2c(=O)n(C3CC3)c(=O)c3c(Nc4ccc(I)cc4F)n(C)c(=O)c(C)c32)c1 [Trametinib] (partner 0.02 µM), the relative viability is 1.02.

As for `CCCCCCCCCCCC1=C(O)C(=O)C=C(O)C1=O` [Embelin] + Nc1ncn([C@H]2C[C@H](O)[C@@H](CO)O2)c(=O)n1 [Decitabine] (partner 2 µM), the relative viability came out at 0.782.

`CCCCCCCCCCCC1=C(O)C(=O)C=C(O)C1=O` [Embelin] + NC(=O)Nc1cc(-c2cccc(F)c2)sc1C(=O)N[C@H]1CCCNC1 [AZD7762] (partner 0.2 µM) gave a relative viability of 0.814.

The next assay relates to LCLC-103H. The assay is described as above. The note with it: first compound 0.08 µM. In outline:
as §1
`CCCCCCCCCCCC1=C(O)C(=O)C=C(O)C1=O` [Embelin] + N=C(N)NC(=N)NCCc1ccccc1 [Phenformin] (partner 250 µM) returned a relative viability of 0.337.

As for `CCCCCCCCCCCC1=C(O)C(=O)C=C(O)C1=O` [Embelin] + O=C(c1cc(Cc2n[nH]c(=O)c3ccccc23)ccc1F)N1CCN(C(=O)C2CC2)CC1 [Olaparib] (partner 8 µM), the relative viability amounted to 0.762.

The compound `CCCCCCCCCCCC1=C(O)C(=O)C=C(O)C1=O` [Embelin] + CC(=O)Nc1cccc(-n2c(=O)n(C3CC3)c(=O)c3c(Nc4ccc(I)cc4F)n(C)c(=O)c(C)c32)c1 [Trametinib] (partner 0.02 µM) had a relative viability of 0.718.

Compound `CCCCCCCCCCCC1=C(O)C(=O)C=C(O)C1=O` [Embelin] + Nc1ncn([C@H]2C[C@H](O)[C@@H](CO)O2)c(=O)n1 [Decitabine] (partner 2 µM) gave a relative viability of 0.754.

Consider `CCCCCCCCCCCC1=C(O)C(=O)C=C(O)C1=O` [Embelin] + NC(=O)Nc1cc(-c2cccc(F)c2)sc1C(=O)N[C@H]1CCCNC1 [AZD7762] (partner 0.2 µM), for which the relative viability amounted to 0.79.
